According to paper PMC9282638, “A Suite of Activity-Based Probes To Dissect the KLK Activome in Drug-Resistant Prostate Cancer” (Journal of the American Chemical Society, 2021):
Square brackets hold non-standard residues; d marks the D form. Ends that are not written are not given here. Peptide text beside a SMILES is read from it. * marks the point of attachment. Phe(3,4-F2) = N[C@@H](Cc1ccc(F)c(F)c1)C(=O)O; Phe(4-Br) = N[C@@H](Cc1ccc(Br)cc1)C(=O)O; Phe(4-NH2) = Nc1ccc(C[C@H](N)C(=O)O)cc1; Dab = NCC[C@H](N)C(=O)O; Nle = CCCC[CH](N)C(=O)O; Abu = CC[C@H](N)C(=O)O; Dap = NC[C@H](N)C(=O)O; X1 = OB(O)C(CCCBr)N*; Ahx = NCCCCCC(=O)O

Assays:
[1] = test system: LNCaP cells; experiment: KLK activity and expression in LNCaP cells after AR signaling perturbation (streptavidin enrichment and immunoblotting); assay type: cell-based, human; settings: 10 nM DHT ± 10 μM Enz, 48 h
Description: (B) KLK activity and expression in the LNCaP cell line after treatment with 10 nM DHT ± 10 μM Enz. KLK activity was assessed by streptavidin enrichment of probe-labeled KLK molecules following treatment of conditioned media with 1 μM of either 31, 20, or 39 for 1 h.
To enable detection of each KLK in WT LNCaP cells, we incubated LNCaP conditioned media with 1 μM of each KLK ABP, enriched labeled proteins on streptavidin beads, and visualized activity levels by immunoblotting with the appropriate KLK antibody (see Figure S19 for workflow).
Routine cell culture conditions: Wild-type LNCaP cells (passage <15) were grown in RPMI
Androgen-signaling Experiments: LNCaP cells grown to 80 % confluency in a T175 plate
were incubated with phenol red-free RPMI media supplemented with 5 % charcoal-stripped
FBS for 24 h. After 24 h, the media was aspirated, and the cells were incubated with serum-
free RPMI media (0 % FBS and phenol red-free) supplemented with the appropriate treatment
condition (10 nM DHT or 10 nM DHT + 10 μM Enzalutamide) for a further 48 h. After 48 h the
media was collected, passed through a 0.2 μm syringe filter and stored at – 80 °C until needed.

[2] = test system: KLK3; settings: cited from earlier work
[3] = molecular target: T1, KLK3 (Homo sapiens, UniProt P07288); experiment: Competitive ABPP against 3 in LNCaP conditioned media, densitometry; assay type: biochemical; settings: LNCaP CM, analogue 1 h then 20 μM 3 for 1 h; 16 analogues tested
T1 construct: endogenous in cells; host or cells: LNCaP cells treated with 10 nM DHT; conditioned medium
Description: Despite exquisite selectivity, maximal KLK3 labeling was achieved only after treatment with 20 μM 3 for 1 h. We therefore optimized probe potency by systematically modifying each amino acid side chain in the P1–P4 positions of a morpholine-capped peptidyl-DPP inhibitor scaffold and determined the potency of each analogue using competitive-ABPP against 3.[25],[26] LNCaP CM was first incubated with a peptidyl-DPP analogue for 1 h, followed by 1 h treatment with 20 μM 3 to assess the degree of KLK3 inhibition by densitometry (Figures S4 and S5 for fluorescent gels and Figure S6 for structures of each morpholine-capped peptidyl-DPP analogue). […] Second generation biotinylated 20 and fluorescent 21 ABPs (Figures 2G and S7) based on this scaffold retained exquisite selectivity for KLK3 in LNCaP CM, but in contrast to first-generation ABP 3 achieved maximum labeling at only 1 μM and readily detectable labeling down to 130 nM (Figures 2H and S7).
Figure S4: Typical gel obtained from assessment of the potency of P1 (top) and P2 (bottom) morpholine-DPP analogues against KLK3 using competitive ABPP. […] Residual KLK3 activity was calculated using densitometry (ImageQuant) by comparing to a DMSO treated sample. […]

[4] = molecular target: T2, KLK2 (Homo sapiens, UniProt P20151); experiment: Determination of kinact/KI, fluorogenic substrate kinetic assay; assay type: biochemical; settings: for selectivity (fold-change): KLK2 over KLK14
T2 construct: purchased R&D Systems
Text: 1.1 Chemicals and Reagents
All chemicals and reagents were purchased from commercial suppliers and used without further purification. Rink Amide resin (100-200 mesh) and 2-Chlorotrityl chloride resin (100-200 mesh, 1% DVB) were obtained from Merck. Natural Fmoc-amino acids were obtained from AGTC Bioproducts Ltd. Unnatural Fmoc-amino acids were obtained from Fluorochem, Alfa Aesar, VWR, Merck, Iris Biotech, Bachem or Sigma Aldrich. Culture media, fetal bovine serum, trypsin, antibiotics and chemicals required for differentiation of osteoprogenitor cells were obtained from Sigma Aldrich, Gibco or Invitrogen. Amicon 3 KDa Centrifugal filter units were obtained from Merck. Recombinant human KLK2 and KLK14 were obtained from R&D Systems and activated using the supplier’s protocol. All remaining chemical reagents were obtained from VWR, Sigma Aldrich or Merck. […]
Fluorescent plate-based enzymatic assays were carried out using an Envision 2104 Multilabel Plate Reader (PerkinElmer) operating in kinetic mode for a minimum of 20 min with excitation/emission […]
Specificity […]
was calculated by normalizing RFUs-1 to the highest value, which was set at 100 %.
Calculations were made in GraphPad Prism 5.
Determination of kcat/KM: The KLK2 substrate and KLK14 substrate were serially diluted in the appropriate KLK assay buffer and 25 μL was added to the wells of a 96-well plate. Next, 25 μL of KLK2 (1.5 nM) or KLK14 (75 pM) was added to each well containing the substrate and the enzyme-substrate reaction was monitored for at least 10 min. The linear portion of each progress curve was used to calculate relative fluorescence units per second (RFUs-1).
KM, kcat, and kcat/KM parameters were determined by nonlinear regression in GraphPad Prism 5 (GraphPad Software). Each experiment was repeated three times and the results are presented as an average ± SEM.
Determination of kinact/KI: Under pseudo-first order conditions, a fixed amount of KLK2 (1.5 nM) or KLK14 (37 pM) was incubated with peptidyl-DPP analogue at different concentrations in the presence of 5 µM of substrate. The pseudo first-order rate constant, kobs, was calculated for each probe concentration using non-linear regression analysis in GraphPad Prism 5. The obtained values were plotted against probe concentration to afford the apparent second order rate constant kinact(app)/KI. The absolute value of the second order rate constant was then obtained by adjusting for the substrate competition factor (1 + [S]/Km), where S is the concentration of substrate in the assay and KM is the Michaelis Menten constant for that substrate/enzyme reaction.
2.5 Cell Migration Assays
Cell migration: The assay was performed as per the manufacturer’s protocol (https://www.corning.com/catalog/cls/documents/protocols/an_Chemotaxis_protocol.pdf).
Briefly, LNCaP-WT, LNCaP-mK14 and LNCaP-K14 cells were grown to 80% confluency in RPMI media supplemented with 5 % FBS. The media was then aspirated, the cells were washed with 2 mL PBS (3*) and incubated with serum-free RPMI (without phenol red) supplemented with 10 nM DHT ± 100 ng/mL Dox for 24 h. Cells were trypsinized, washed twice with serum-free RPMI and resuspended in serum-free RPMI. 100,000 cells in 100 µL of serum-free RPMI was then added to the transwell inserts placed in a 24-well plate (Corning […]
Figure S15: KLK2 and KLK14 substrates. (A) Structures (B) Optimal assay conditions for […]
S19) inhibitors (C) Michaelis-Menten (K M) and rate (kcat) constants for KLK substrates

[5] = molecular target: T3, KLK14 (Homo sapiens, UniProt Q9P0G3); experiment: as above; assay type: biochemical; settings: for kinact/KI / Kinact/KI KLK14: mean ± SEM (N = 3); for selectivity (fold-change): KLK14 over KLK2
T3 construct: purchased R&D Systems
T3 sequence (Q9P0G3 25-251): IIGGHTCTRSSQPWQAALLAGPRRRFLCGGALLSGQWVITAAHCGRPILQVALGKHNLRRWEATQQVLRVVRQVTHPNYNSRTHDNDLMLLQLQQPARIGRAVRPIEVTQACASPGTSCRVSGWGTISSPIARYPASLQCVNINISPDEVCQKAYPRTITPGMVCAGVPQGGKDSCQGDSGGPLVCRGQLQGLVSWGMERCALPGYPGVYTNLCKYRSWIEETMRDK

[6] = KLK2 probe optimization series, mean ± SEM (N = 3)
[7] = KLK14 probe optimization series
[8] = KLK14 probe optimization series, mean ± SEM (N = 3)

T2 sequence (P20151 25-261): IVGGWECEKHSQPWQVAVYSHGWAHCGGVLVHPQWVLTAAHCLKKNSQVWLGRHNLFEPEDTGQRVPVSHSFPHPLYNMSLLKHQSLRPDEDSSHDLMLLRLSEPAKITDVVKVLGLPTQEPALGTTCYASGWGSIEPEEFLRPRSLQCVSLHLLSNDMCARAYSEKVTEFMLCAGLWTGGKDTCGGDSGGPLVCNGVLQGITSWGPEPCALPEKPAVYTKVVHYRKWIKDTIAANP
T1 sequence (P07288 25-261): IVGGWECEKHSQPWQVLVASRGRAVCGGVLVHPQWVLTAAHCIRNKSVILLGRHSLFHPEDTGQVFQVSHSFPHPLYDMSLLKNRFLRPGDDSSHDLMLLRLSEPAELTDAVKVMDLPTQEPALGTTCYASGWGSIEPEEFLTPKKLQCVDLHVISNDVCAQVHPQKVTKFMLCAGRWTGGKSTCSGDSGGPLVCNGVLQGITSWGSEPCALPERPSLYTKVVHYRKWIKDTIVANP

| Molecule | selectivity (fold-change) ([4]; KLK2 probe optimization series) [fold] | Kinact/KI KLK2 [4, 6] [M^–1 s^–1] | Kinact/KI KLK14 ([5]; KLK2 probe optimization series) [M^–1 s^–1] | Kinact/KI KLK14 [5, 7] [M^–1 s^–1] | also measured |
| --- | --- | --- | --- | --- | --- |
| C[C@]12CCC(=O)C[C@@H]1CC[C@@H]1[C@@H]2CC[C@]2(C)[C@@H](O)CC[C@@H]12 [DHT, dihydrotestosterone] |  |  |  |  | KLK14 expression and activity [1]: decreased; expression and activity of KLK2 and KLK3 [1]: upregulated |
| O=C(NC(c1ccc(O)cc1)P(=O)(Oc1ccccc1)Oc1ccccc1)OCc1ccccc1 (stereo not shown) [compound 1] |  |  |  |  | KLK3 inhibition (in words) [2]: modestly potent inhibitor of KLK3 |
| CCCCC(NC(=O)C(CCC(N)=O)NC(=O)C(CO)NC(=O)C(Cc1ccccc1)NC(=O)CCCCCN)C(=O)NC(CCCBr)B(O)O (stereo not shown) [compound 2] (H-[Ahx]FSQ[Nle]-X1; configuration not given here) |  |  |  |  | KLK3 inhibition (in words) [2]: potent and selective KLK3 inhibitor |
| CCC[C@H](NC(=O)[C@H](CCC(N)=O)NC(=O)[C@H](CC(N)=O)NC(=O)CN1CCOCC1)C(=O)NC(c1ccc(C(N)=O)cc1)P(=O)(Oc1ccccc1)Oc1ccccc1 (stereo partly shown) [compound 15] |  |  |  |  | KLK3 inhibition by competitive ABPP [3]: potent KLK3 inhibitor |
| CCC(NC(=O)CCCCCNC(=O)CCCCC1SCC2NC(=O)NC21)C(=O)NC(CCN)C(=O)NC(CC1CCCCC1)C(=O)NC(c1ccc(NC(=N)N)cc1)P(=O)(Oc1ccccc1)Oc1ccccc1 (stereo not drawn) [compound 22, Abu-Dab-Cha-Arg] | 6 |  |  |  | kinact/KI [4, 6]: 3270 ± 39 M⁻¹ s⁻¹; kinact/KI ([5]; KLK2 probe optimization series): 511 ± 18 M⁻¹ s⁻¹ |
| CC(OCc1ccccc1)C(NC(=O)CCCCCNC(=O)CCCCC1SCC2NC(=O)NC21)C(=O)NC(CCCCN)C(=O)NC(Cc1cn(Cc2ccccc2)cn1)C(=O)NC(c1ccc(NC(=N)N)cc1)P(=O)(Oc1ccccc1)Oc1ccccc1 (stereo not shown) [compound 32, Thr(Bz)-Lys-His(Bz)-Arg] |  |  |  |  | kinact/KI [5, 7]: 523 ± 46 M⁻¹ s⁻¹ |
| CNC(=O)c1ccc(N2C(=S)N(c3ccc(C#N)c(C(F)(F)F)c3)C(=O)C2(C)C)cc1F [enzalutamide] |  |  |  |  | KLK14 expression and activity [1]: restored; expression and activity of KLK2 and KLK3 [1]: nullified |
| Abu-Dab-4 Pal-Arg [compound 24] | 7 | 2586 ± 54 | 390 ± 15 |  |  |
| Abu-Dab-Phe(3-CI)-Arg [compound 25] | 8 | 3615 ± 107 | 443 ± 16 |  |  |
| Abu-Lys(TFA)-Tyr-Arg [compound 29] |  | 128 ± 19 |  |  |  |
| Thr(Bz)-Dab-Abu-Arg [compound 36] |  |  |  | 18274 ± 680 | Kinact/KI KLK2 [4, 8]: 1668 ± 60 M^–1 s^–1; selectivity (fold-change) [5, 7]: 11 fold |
| Thr(Bz)-Dap-Abu-Arg [compound 37] |  |  |  | 12636 ± 496 | Kinact/KI KLK2 [4, 8]: 1162 ± 40 M^–1 s^–1; selectivity (fold-change) [5, 7]: 11 fold |
| Thr(Bz)-Lys-Abu-Arg [compound 35] |  |  |  | 5903 ± 254 | Kinact/KI KLK2 [4, 8]: 231 ± 9 M^–1 s^–1; selectivity (fold-change) [5, 7]: 25 fold |
| Thr(Bz)-Lys-Hse(Bz)Arg [compound 33] |  |  |  | 1121 ± 54 |  |
| Thr(Bz)-Lys-Phe(3,4-F2)-Arg [compound 34] |  |  |  | 602 ± 33 |  |
| Tyr(Bz)-Dab-Abu-Arg [compound 41] |  |  |  | 8894 ± 132 | Kinact/KI KLK2 [4, 8]: 98 ± 4 M^–1 s^–1; selectivity (fold-change) [5, 7]: 91 fold |
| [Abu][Dab]WR [compound 27] | 9 | 2374 ± 37 | 270 ± 5 |  |  |
| [Abu][Dab]YR [compound 26] | 14 | 7881 ± 249 | 552 ± 11 |  |  |
| [Abu][Dab][Phe(3,4-F2)]R [compound 28] | 2 | 5653 ± 265 | 2526 ± 173 |  |  |
| [Abu][Dab][Phe(4-NH2)]R [compound 23] | 4 | 1659 ± 35 | 432 ± 15 |  |  |
| [Dap][Dab]YR [compound 30] |  | 1849 ± 53 | 134 ± 6 |  |  |
| [Phe(4-Br)][Dab][Abu]R [compound 40] |  |  |  | 20215 ± 570 | Kinact/KI KLK2 [4, 8]: 350 ± 9 M^–1 s^–1; selectivity (fold-change) [5, 7]: 57 fold |
